# Experimental data taken from patent US20100331348A1, “TROPANE DERIVATIVES USEFUL AS PESTICIDES” (SYNGENTA CROP PROTECTION, INC., priority 2007, published 2010).
# Like-named read-outs stand apart in the source and are kept apart here.
# Assays:
# [1] = system: Puccinia recondita f.sp. tritici; assay: Puccinia recondita f.sp. tritici (wheat brown rust) leaf disk assay; assay type: in vivo; conditions: foliar, 216 h, preventive, nine days after inoculation, read-out: control of fungal infection, Puccinia recondita f.sp. tritici
# [2] = system: Erysiphe graminis f.sp. tritici; assay: Erysiphe graminis f.sp. tritici (wheat powdery mildew) leaf disk assay; assay type: in vivo; conditions: Blumeria graminis, foliar, 96 h, preventive, four days after inoculation, read-out: control of fungal infection, Erysiphe graminis fsp. tritici
# Aedes aegypti = Aedes aegypti (Yellow fever mosquito) larvae test; assay type: in vivo; conditions: 48 h
# Phytophthora infestans = assay: whole plant or invertebrate; assay type: in vivo; conditions: foliar, 96 h, read-out: control of fungal infection, Phytophthora infestans
# Plutella xylostella = Plutella xylostella (Diamond back moth) artificial diet test; conditions: 120 h, read-out: control of Plutella xylostella
# Tetranychus urticae = conditions: foliar, 192 h, read-out: control of Tetranychus urticae
# Pyricularia oryzae = assay: whole plant or invertebrate; assay type: in vivo; conditions: foliar, 96 h
# Plasmopara viticola = Plasmopara viticola (downy mildew of grapevine) leaf disk assay; assay type: in vivo; conditions: foliar, 168 h, preventive, seven days after inoculation, read-out: control of fungal infection, Plasmopara viticola
# [3] = read-out: control of fungal infection, Pyricularia oryzae (at least 60% list)
# [4] = read-out: control of fungal infection, Pyricularia oryzae (at least 80% list)
Structure (SMILES),melting point [°C],pest or weed control at 200 ppm [1] [%],pest or weed control at 200 ppm [2] [%],pest or weed control at 200 ppm (Tetranychus urticae) [%],also measured
Cc1cc(C(F)(F)F)cc(ON=C2CC3CCC(C2)N3c2ncnc3sccc23)n1 [Example 5.196],167,≥ 80,≥ 80,–,–
c1ccc2cc(CON=C3CC4CCC(C3)N4c3ncnc4sccc34)ccc2c1 [Example 5.147],–,≥ 80,≥ 80,≥ 80,pest or weed control at 2 ppm (Aedes aegypti): ≥ 80%; pest or weed control at 200 ppm (Phytophthora infestans): ≥ 80%; pest or weed control at 200 ppm (Plutella xylostella): ≥ 80%
CS(=O)(=O)OC1C[C@H]2CC[C@@H](C1)N2c1ncnc2sccc12 (stereo partly drawn) [Example 2.10],135,–,≥ 80,–,–
CCc1ncnc(N2[C@@H]3CC[C@H]2CC(Oc2nc(Br)ccc2Cl)C3)c1Cl (stereo partly drawn) [Example 1.167],–,–,≥ 80,≥ 80,–
Cc1cc(N2[C@@H]3CC[C@H]2CC(Oc2ccc(C(F)(F)F)cn2)C3)n2ncnc2n1 (stereo partly drawn) [Example 2.139],240,–,≥ 80,–,pest or weed control at 200 ppm (Pyricularia oryzae; [3]): ≥ 60%
FC(F)(F)c1cccc(OC2C[C@H]3CC[C@@H](C2)N3c2cc(Cl)ncn2)n1 (stereo partly drawn) [Example 2.90],136,–,≥ 80,–,–
FC(F)(F)c1ccnc(OC2C[C@H]3CC[C@@H](C2)N3c2ncnc3sccc23)c1 (stereo partly drawn) [Example 2.51],172,–,–,–,pest or weed control at 200 ppm (Pyricularia oryzae; [3]): ≥ 60%
Cc1noc2ncnc(N3[C@@H]4CC[C@H]3CC(Oc3cccc(C(F)(F)F)n3)C4)c12 (stereo partly drawn) [Example 2.121],159,≥ 80,≥ 80,–,–
Cc1cc(N2[C@@H]3CC[C@H]2CC(Oc2cccc(C(F)(F)F)n2)C3)n2ncnc2n1 (stereo partly drawn) [Example 2.101],212,–,–,–,pest or weed control at 200 ppm (Plasmopara viticola): ≥ 80%
CCc1ncnc(N2C3CCC2CC(=Cc2ccccc2)C3)c1Cl [Example 3.6],–,–,–,≥ 80,pest or weed control at 2 ppm (Aedes aegypti): ≥ 80%; pest or weed control at 200 ppm (Phytophthora infestans): ≥ 80%; pest or weed control at 200 ppm (Plutella xylostella): ≥ 80%; pest or weed control at 200 ppm (Pyricularia oryzae; [3]): ≥ 60%
Cc1ccc(CON=C2CC3CCC(C2)N3c2ncnc3sccc23)cc1C [Example 5.179],–,≥ 80,≥ 80,≥ 80,pest or weed control at 2 ppm (Aedes aegypti): ≥ 80%; pest or weed control at 200 ppm (Plutella xylostella): ≥ 80%; pest or weed control at 200 ppm (Pyricularia oryzae; [3]): ≥ 60%
CCOC(=O)C=C1CC2CCC(C1)N2c1ncnc2sccc12 [Example 3.34],101,≥ 80,–,–,pest or weed control at 200 ppm (Pyricularia oryzae; [3]): ≥ 60%; pest or weed control at 200 ppm (Pyricularia oryzae; [4]): ≥ 80%; pest or weed control at 200 ppm (Plasmopara viticola): ≥ 80%
O=C1c2ccccc2C(=O)N1OC1C[C@H]2CC[C@@H](C1)N2c1ncnc2sccc12 (stereo partly drawn) [Example 2.64],190,≥ 80,–,–,pest or weed control at 200 ppm (Pyricularia oryzae; [3]): ≥ 60%; pest or weed control at 200 ppm (Pyricularia oryzae; [4]): ≥ 80%
Cc1nn(C)c2nccc(N3[C@@H]4CC[C@H]3CC(Oc3nc(C(F)(F)F)cs3)C4)c12 (stereo partly drawn) [Example 2.107],184,–,≥ 80,–,–
Cn1nc(C(F)(F)F)cc1C(=O)N1[C@@H]2CC[C@H]1CC(Oc1cc(C(F)(F)F)ccn1)C2 (stereo partly drawn) [Example 2.217],122,–,≥ 80,–,–
N#CCC1CC2CCC(C1)N2c1ncnc2sccc12 (stereo not drawn) [Example 7.1],–,–,–,≥ 80,–
CCc1ncnc(N2C3CCC2CC(=NOCc2ccc(SC(F)(F)F)cc2)C3)c1Cl [Example 5.99],–,≥ 80,≥ 80,≥ 80,–
FC(F)(F)c1ccc(-c2nc(CON=C3CC4CCC(C3)N4c3ncnc4sccc34)no2)cc1 [Example 5.260],–,≥ 80,≥ 80,≥ 80,–
OC1(CC#Cc2ccccc2)CC2CCC(C1)N2c1ncnc2sccc12 (stereo not drawn) [Example 7.15],173,≥ 80,–,–,–
N#Cc1c(Cl)nsc1N1[C@@H]2CC[C@H]1CC(Oc1cc(C(F)(F)F)ccn1)C2 (stereo partly drawn) [Example 2.196],103,–,≥ 80,–,–
FC(F)(F)Oc1ccc(CON=C2CC3CCC(C2)N3c2ncnc3sccc23)cc1 [Example 5.210],–,≥ 80,≥ 80,≥ 80,pest or weed control at 2 ppm (Aedes aegypti): ≥ 80%; pest or weed control at 200 ppm (Phytophthora infestans): ≥ 80%; pest or weed control at 200 ppm (Plutella xylostella): ≥ 80%
CCC(=O)c1ccc(OC2C[C@H]3CC[C@@H](C2)N3c2ncnc3sccc23)cc1 (stereo partly drawn) [Example 2.37],–,–,≥ 80,≥ 80,–
FC(F)(F)c1cnc(ON=C2CC3CCC(C2)N3c2ncnc3sccc23)c(Cl)c1 [Example 5.207],156,≥ 80,≥ 80,–,pest or weed control at 200 ppm (Pyricularia oryzae; [3]): ≥ 60%

Structure (SMILES),melting point [°C],pest or weed control at 200 ppm [1] [%],pest or weed control at 200 ppm [2] [%],pest or weed control at 200 ppm (Tetranychus urticae) [%],also measured
FC(F)(F)c1ccc(ON=C2CC3CCC(C2)N3c2ncnc3sccc23)nc1 [Example 5.170],–,≥ 80,≥ 80,≥ 80,pest or weed control at 200 ppm (Pyricularia oryzae; [3]): ≥ 60%
N#Cc1ccc(OC2C[C@H]3CC[C@@H](C2)N3c2ncnc3sccc23)cc1F (stereo partly drawn) [Example 1.259],–,≥ 80,–,≥ 80,pest or weed control at 2 ppm (Aedes aegypti): ≥ 80%
CCc1ncnc(N2C3CCC2CC(=CC#N)C3)c1Cl [Example 3.1],73,≥ 80,–,–,–
CCc1ncnc(N2C3CCC2CC(=NOCc2ccc(C(C)C)cc2)C3)c1Cl [Example 5.20],–,≥ 80,≥ 80,≥ 80,pest or weed control at 200 ppm (Plasmopara viticola): ≥ 80%
Cc1nsc(N2[C@@H]3CC[C@H]2CC(Oc2ccc(C(F)(F)F)cn2)C3)n1 (stereo partly drawn) [Example 2.204],169,≥ 80,–,–,–
Fc1cc(F)c(CON=C2CC3CCC(C2)N3c2ncnc3sccc23)cc1F [Example 5.226],106,≥ 80,≥ 80,–,–
Cc1nn(C)c2nccc(N3[C@@H]4CC[C@H]3CC(Oc3ncc(Cl)cc3F)C4)c12 (stereo partly drawn) [Example 1.252],112,–,≥ 80,–,pest or weed control at 200 ppm (Pyricularia oryzae; [3]): ≥ 60%
CCc1ncnc(N2C3CCC2CC(=NOCc2ccc(C(F)(F)F)c(F)c2)C3)c1Cl [Example 5.86],–,≥ 80,–,≥ 80,pest or weed control at 200 ppm (Pyricularia oryzae; [4]): ≥ 80%
CCc1ncnc(N2C3CCC2CC(O)(CC#C[Si](C)(C)C)C3)c1Cl (stereo not drawn) [Example 7.34],85,–,–,–,pest or weed control at 200 ppm (Pyricularia oryzae; [3]): ≥ 60%
Cc1nn(C)c2nccc(N3C4CCC3CC(=NOc3ncc(C(F)(F)F)cc3Cl)C4)c12 [Example 5.261],153,–,≥ 80,–,–
Cc1nn(C)c2nccc(N3[C@@H]4CC[C@H]3CC(Oc3ccc(C(F)(F)F)cn3)C4)c12 (stereo partly drawn) [Example 2.194],–,–,–,≥ 80,–
Fc1ccc(CON=C2CC3CCC(C2)N3c2ncnc3sccc23)c(Cl)c1 [Example 5.192],–,–,–,≥ 80,pest or weed control at 2 ppm (Aedes aegypti): ≥ 80%; pest or weed control at 200 ppm (Plutella xylostella): ≥ 80%; pest or weed control at 200 ppm (Pyricularia oryzae; [3]): ≥ 60%
Cc1nn(C)c2nccc(N3C4CCC3CC(=NO)C4)c12,201,–,–,–,–
N#Cc1c(Cl)nsc1N1[C@@H]2CC[C@H]1CC(Oc1ccc(C(F)(F)F)cn1)C2 (stereo partly drawn),157,–,–,–,–
FC(F)(F)c1ccnc(OC2C[C@H]3CC[C@@H](C2)N3c2ccncn2)c1 (stereo partly drawn) [Example 2.87],108,–,–,–,pest or weed control at 200 ppm (Pyricularia oryzae; [3]): ≥ 60%
CCc1ncnc(C(C)c2ncnc(N3C4CCC3CC(=NO)C4)c2Cl)c1Cl (stereo not drawn) [Example 5.4],162,–,≥ 80,–,–
CCc1ncnc(N2C3CCC2CC(=NOCc2ccc(OC(F)(F)F)cc2)C3)c1Cl [Example 5.66],–,≥ 80,≥ 80,≥ 80,pest or weed control at 200 ppm (Plutella xylostella): ≥ 80%
CCc1ncnc(N2C3CCC2CC(=NOCc2ccc(-c4ccccc4)cc2)C3)c1Cl [Example 5.22],–,≥ 80,≥ 80,≥ 80,–
Cc1csc2c(N3[C@@H]4CC[C@H]3CC(Oc3cc(C(F)(F)F)ccn3)C4)ncnc12 (stereo partly drawn),76,–,–,–,–
Cc1nsc(N2[C@@H]3CC[C@H]2CC(Oc2ccc(C(F)(F)F)cn2)C3)c1Cl (stereo partly drawn) [Example 2.199],46,–,≥ 80,–,–
Fc1c(Cl)cccc1CON=C1CC2CCC(C1)N2c1ncnc2sccc12 [Example 5.217],–,≥ 80,≥ 80,≥ 80,pest or weed control at 2 ppm (Aedes aegypti): ≥ 80%; pest or weed control at 200 ppm (Plutella xylostella): ≥ 80%; pest or weed control at 200 ppm (Pyricularia oryzae; [3]): ≥ 60%; pest or weed control at 200 ppm (Pyricularia oryzae; [4]): ≥ 80%
N#Cc1sc(N2[C@@H]3CC[C@H]2CC(Oc2ccc(C(F)(F)F)cn2)C3)nc1C(F)(F)F (stereo partly drawn),135,–,–,–,–
CC(C)(C)c1ccc(CON=C2CC3CCC(C2)N3c2ncnc3sccc23)cc1 [Example 5.167],–,≥ 80,≥ 80,≥ 80,–
